By IC50 is commonly meant the concentration needed to halve the response being measured. Read a high IC50 as a need for much substance.

Experiment [1] concerns the target T1, Epidermal growth factor receptor (Homo sapiens, UniProt P00533). Kind of experiment: Inhibitory concentration against EGF receptor by polyGAT phosphorylation.
Experiment [2] addresses T1, Epidermal growth factor receptor. Kind of experiment: Inhibitory concentration against EGF receptor by autophosphorylation.
The target is the same in experiment [3]. Kind of experiment: Inhibition of polyGAT phosphorylation by EGF receptor.

T1 sequence (P00533 whole entry): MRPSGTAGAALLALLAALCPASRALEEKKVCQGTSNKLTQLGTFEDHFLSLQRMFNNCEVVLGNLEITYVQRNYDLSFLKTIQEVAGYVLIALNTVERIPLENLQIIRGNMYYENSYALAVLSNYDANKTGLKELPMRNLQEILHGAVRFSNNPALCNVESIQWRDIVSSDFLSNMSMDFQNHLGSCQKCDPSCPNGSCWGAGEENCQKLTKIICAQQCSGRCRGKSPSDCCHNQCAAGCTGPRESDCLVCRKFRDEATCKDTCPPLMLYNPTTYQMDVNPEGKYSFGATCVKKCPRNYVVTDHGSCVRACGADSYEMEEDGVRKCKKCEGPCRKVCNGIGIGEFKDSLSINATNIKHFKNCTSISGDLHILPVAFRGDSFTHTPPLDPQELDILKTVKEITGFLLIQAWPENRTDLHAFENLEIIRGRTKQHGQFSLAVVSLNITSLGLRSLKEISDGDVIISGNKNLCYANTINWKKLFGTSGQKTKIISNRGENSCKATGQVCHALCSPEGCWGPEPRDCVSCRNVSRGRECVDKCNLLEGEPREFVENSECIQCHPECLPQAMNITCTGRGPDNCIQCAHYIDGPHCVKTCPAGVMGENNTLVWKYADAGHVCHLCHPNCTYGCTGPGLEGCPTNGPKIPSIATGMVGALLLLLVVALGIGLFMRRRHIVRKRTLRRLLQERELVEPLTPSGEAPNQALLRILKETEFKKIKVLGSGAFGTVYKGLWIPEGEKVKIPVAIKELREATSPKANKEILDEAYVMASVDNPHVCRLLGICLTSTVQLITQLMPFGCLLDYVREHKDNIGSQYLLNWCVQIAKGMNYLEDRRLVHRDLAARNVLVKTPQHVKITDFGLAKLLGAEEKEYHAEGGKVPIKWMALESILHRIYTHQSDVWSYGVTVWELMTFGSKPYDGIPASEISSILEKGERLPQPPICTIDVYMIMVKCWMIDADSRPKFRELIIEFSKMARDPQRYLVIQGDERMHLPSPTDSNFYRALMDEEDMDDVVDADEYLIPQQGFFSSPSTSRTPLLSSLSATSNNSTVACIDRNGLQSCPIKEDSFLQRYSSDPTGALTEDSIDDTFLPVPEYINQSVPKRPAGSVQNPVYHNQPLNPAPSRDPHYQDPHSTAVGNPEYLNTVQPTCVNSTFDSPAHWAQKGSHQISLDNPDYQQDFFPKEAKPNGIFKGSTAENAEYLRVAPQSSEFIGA

As to `COc1cc(/C=C(\C#N)C(N)=O)cc(CSc2nc3cc(Cl)ccc3s2)c1O`, the IC50 in experiment [1] was 4.4 µM; in experiment [2], over 83 µM.

Consider `COc1cc(/C=C(\C#N)C(N)=O)cc(CSc2ccccc2NC(C)=O)c1O`, for which the results for the IC50 in experiment [1] and in experiment [2] were 5.6 µM and 22 µM, respectively.

On to `Cc1cc(C=C(C#N)C#N)cc(O)c1O`, for which the IC50 in experiment [1] was determined as 5.6 µM; in experiment [2] it was 62 µM.

Take `COc1cc(/C=C(\C#N)C(=O)c2ccc(O)c(O)c2)cc(CSCc2ccccc2)c1O`: the half-inhibitory concentration (IC50) in experiment [1] is 0.75 µM; in experiment [2] it was 4.5 µM.

Turning to `COc1cc(/C=C(\C#N)C(N)=O)cc(CSc2ccccc2)c1O`, the IC50 in experiment [1] came to 2.9 µM; in experiment [2], 0.4 µM.

On to `CCOc1ccc2nc(SCc3cc(/C=C(\C#N)C(N)=O)cc(OC)c3O)sc2c1`, for which the IC50 in experiment [2] is over 167 µM; in experiment [3], over 100 µM.

For `COc1cc(/C=C(\C#N)C(N)=O)cc(CSc2nc3ccccc3o2)c1O`, the IC50 in experiment [1] was 12.5 µM; in experiment [2], 5.3 µM.

Take `COc1cc(C=C(C#N)C#N)cc(CSc2ccccc2C(=O)O)c1O`: the values for the IC50 in experiment [1] and in experiment [2] were 36 µM and 8 µM, respectively.

`COc1cc(/C=C(\C#N)C(N)=O)cc(CSc2ccccn2)c1O`: the IC50 in experiment [1] worked out at 25 µM; in experiment [2], 3.4 µM.

As to `COc1cc(/C=C(\C#N)C(N)=O)cc(CSCc2ccc(Cl)cc2)c1O`, the figures for the IC50 in experiment [1] and in experiment [2] were 14.8 µM and 16 µM, respectively.

Consider `COc1cc(/C=C(\C#N)C(N)=O)cc(CSc2ccccc2C(=O)O)c1O`, for which the IC50 in experiment [1] amounted to 37 µM; in experiment [2], 0.71 µM.

On to `COc1cc(C=C(C#N)C#N)cc(C)c1O`, for which the IC50 in experiment [1] came to 2600 µM; in experiment [2], 87 µM.

Turning to `COc1cc(C=C(C#N)C#N)cc(CSCC(=O)O)c1O`, the IC50 in experiment [1] is 96 µM; in experiment [2], 54 µM.

As for `COc1cc(C=C(C#N)C#N)cc(CSc2ccccc2)c1O`, the IC50 in experiment [1] was 370 µM; in experiment [2], 6.7 µM.

Turning to `COc1cc(/C=C(\C#N)C(N)=O)cc(CSCc2ccccc2Cl)c1O`, the figures for the IC50 in experiment [1] and in experiment [2] were 2.5 µM and 1 µM, respectively.

For `COc1cc(/C=C(\C#N)C(N)=O)cc(CSCc2ccccc2)c1O`, the values for the IC50 in experiment [1] and in experiment [2] were 1.95 µM and 0.9 µM, respectively.

With `COc1cc(/C=C(\C#N)C(N)=O)cc(CSc2ccc3ccccc3c2)c1O`, the IC50 in experiment [1] worked out at 6.6 µM; in experiment [2] it was 1.7 µM.

Turning to `COc1cc(/C=C(\C#N)C(N)=O)cc(CSc2nc3ccccc3[nH]2)c1O`, the IC50 in experiment [1] is 75 µM; in experiment [2], 14.5 µM.

Regarding `N#C/C(=C\c1cc(O)c(O)c(CSc2nc3ccccc3s2)c1)C(N)=O`, the IC50 was 6.5 µM in experiment [1] and 3.2 µM in experiment [2].

As for `COc1cc(C=C(C#N)C#N)cc(CS(=O)(=O)c2ccc(C)cc2)c1O`, the IC50 in experiment [1] amounted to 85 µM; in experiment [2] it was 23 µM.

With `COc1cc(/C=C(\C#N)C(N)=O)cc(CSc2ccc(O)cc2)c1O`, the IC50 in experiment [1] and in experiment [2] was 2.5 µM throughout.

`COc1cc(/C=C(\C#N)C(N)=O)cc(CSCCC(=O)O)c1O` registered an IC50 in experiment [3] of 125 µM.

Turning to `N#C/C(=C\c1cc(O)c(O)c(CSCc2ccccc2)c1)C(N)=O`, the IC50 came to 0.94 µM in experiment [1] and 0.64 µM in experiment [2].

For the origin of these results see ChEMBL document CHEMBL1126897, “Tyrphostins. 3. Structure-activity relationship studies of alpha-substituted benzylidenemalononitrile 5-S-aryltyrphostins” (J Med Chem, 1993).
